Experimental data: PubChem BioAssay (NCI)
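Results reflect a 48-hour exposure of cells in 96-well plates to compound at five concentrations. GI50 is the concentration that inhibits growth by half. TGI is the concentration that stops growth completely.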

What was measured:
Experiment in all cases: NCI tumour cell line growth inhibition, 48 h
K-562 leukemia = test system: K-562 leukemia
SF-539 CNS = test system: SF-539 CNS
IGROV1 ovarian = test system: IGROV1 ovarian
786-0 renal = test system: 786-0 renal
NCI-H226 lung = test system: NCI-H226 lung
CAKI-1 renal = test system: CAKI-1 renal
OVCAR-4 ovarian = test system: OVCAR-4 ovarian
RXF 393 renal = test system: RXF 393 renal
SF-295 CNS = test system: SF-295 CNS
HOP-62 NSCLC = test system: HOP-62 NSCLC
MALME-3M melanoma = test system: MALME-3M melanoma
UO-31 renal = test system: UO-31 renal
KM12 colon = test system: KM12 colon
HOP-92 NSCLC = test system: HOP-92 NSCLC
HCC-2998 colon = test system: HCC-2998 colon
MCF7 breast = test system: MCF7 breast
BT-549 breast = test system: BT-549 breast
A498 renal = test system: A498 renal
NCI-H522 lung = test system: NCI-H522 lung
COLO 205 colon = test system: COLO 205 colon
TK-10 renal = test system: TK-10 renal
U251 CNS = test system: U251 CNS
MDA-MB-231 breast = test system: MDA-MB-231 breast
OVCAR-8 ovarian = test system: OVCAR-8 ovarian
PC-3 prostate = test system: PC-3 prostate
SN12C renal = test system: SN12C renal
HS 578T breast = test system: HS 578T breast
SF-268 CNS = test system: SF-268 CNS
OVCAR-5 ovarian = test system: OVCAR-5 ovarian
SNB-19 CNS = test system: SNB-19 CNS
NCI/ADR-RES ovarian = test system: NCI/ADR-RES ovarian
UACC-257 melanoma = test system: UACC-257 melanoma
SNB-75 CNS = test system: SNB-75 CNS
NCI-H460 lung = test system: NCI-H460 lung
CCRF-CEM leukemia = test system: CCRF-CEM leukemia
SK-MEL-5 melanoma = test system: SK-MEL-5 melanoma
LOX IMVI melanoma = test system: LOX IMVI melanoma
RPMI-8226 leukemia = test system: RPMI-8226 leukemia
MDA-MB-435 = test system: MDA-MB-435
SK-MEL-28 melanoma = test system: SK-MEL-28 melanoma
SR leukemia = test system: SR leukemia
T-47D breast = test system: T-47D breast
EKVX NSCLC = test system: EKVX NSCLC
M14 melanoma = test system: M14 melanoma
DU-145 prostate = test system: DU-145 prostate
ACHN renal = test system: ACHN renal
HT29 colon = test system: HT29 colon
UACC-62 melanoma = test system: UACC-62 melanoma
SK-OV-3 ovarian = test system: SK-OV-3 ovarian
HCT-116 colon = test system: HCT-116 colon
NCI-H23 lung = test system: NCI-H23 lung
HL-60(TB) leukemia = test system: HL-60(TB) leukemia
OVCAR-3 ovarian = test system: OVCAR-3 ovarian
A549 NSCLC = test system: A549 NSCLC
SW-620 colon = test system: SW-620 colon
MOLT-4 leukemia = test system: MOLT-4 leukemia
HCT-15 colon = test system: HCT-15 colon
SK-MEL-2 melanoma = test system: SK-MEL-2 melanoma

Which GI50 (K-562 leukemia) does the source give for `O=S(=O)(Nc1cc(Sc2cccc3cccnc23)c(O)c2ccccc12)c1ccc(F)cc1` here?
Its GI50 is 1.37 µM.

What about the TGI (K-562 leukemia) of the same molecule?
Its TGI is 9.52 µM.

And the GI50 (SF-539 CNS)?
Its GI50 is 2.04 µM.

And the TGI (SF-539 CNS)?
The TGI was 5.99 µM.

And the GI50 (IGROV1 ovarian)?
Its GI50 is 1.06 µM.

And the TGI (IGROV1 ovarian)?
The TGI was 4.2 µM.

And the GI50 (786-0 renal)?
The GI50 was 1.19 µM.

And the TGI (786-0 renal)?
Its TGI is 6.85 µM.

What about the GI50 (NCI-H226 lung) of the same molecule?
The GI50 was 3.24 µM.

What about the TGI (NCI-H226 lung) of the same molecule?
Its TGI is 19 µM.

And the GI50 (CAKI-1 renal)?
The GI50 was 2.79 µM.

And the GI50 (OVCAR-4 ovarian)?
The GI50 was 0.504 µM.

What about the TGI (OVCAR-4 ovarian) of the same molecule?
Its TGI is 1.8 µM.

And the GI50 (RXF 393 renal)?
Its GI50 is 1.97 µM.

What about the TGI (RXF 393 renal) of the same molecule?
Its TGI is 5.43 µM.

What about the GI50 (SF-295 CNS) of the same molecule?
Its GI50 is 3.34 µM.

And the TGI (SF-295 CNS)?
The TGI was 12.8 µM.

What about the GI50 (HOP-62 NSCLC) of the same molecule?
Its GI50 is 2.05 µM.

And the TGI (HOP-62 NSCLC)?
The TGI was 17 µM.

What about the GI50 (MALME-3M melanoma) of the same molecule?
Its GI50 is 1.98 µM.

And the TGI (MALME-3M melanoma)?
Its TGI is 4.94 µM.

And the GI50 (UO-31 renal)?
Its GI50 is 1.09 µM.

What about the TGI (UO-31 renal) of the same molecule?
Its TGI is 4.75 µM.

And the GI50 (KM12 colon)?
The GI50 was 2.48 µM.

What about the TGI (KM12 colon) of the same molecule?
The TGI was 14.2 µM.

What about the GI50 (HOP-92 NSCLC) of the same molecule?
The GI50 was 2.02 µM.

And the TGI (HOP-92 NSCLC)?
Its TGI is 7.08 µM.

And the GI50 (HCC-2998 colon)?
The GI50 was 4.8 µM.

And the TGI (HCC-2998 colon)?
The TGI was 15.6 µM.

And the GI50 (MCF7 breast)?
The GI50 was 1.05 µM.

What about the TGI (MCF7 breast) of the same molecule?
Its TGI is 3.21 µM.

What about the GI50 (BT-549 breast) of the same molecule?
The GI50 was 3.04 µM.

And the TGI (BT-549 breast)?
Its TGI is 13.7 µM.

And the GI50 (A498 renal)?
Its GI50 is 3.96 µM.

What about the TGI (A498 renal) of the same molecule?
Its TGI is 24.1 µM.

What about the GI50 (NCI-H522 lung) of the same molecule?
Its GI50 is 1.4 µM.

And the TGI (NCI-H522 lung)?
The TGI was 3.9 µM.

And the GI50 (COLO 205 colon)?
The GI50 was 1.69 µM.

And the TGI (COLO 205 colon)?
The TGI was 3.51 µM.

What about the GI50 (TK-10 renal) of the same molecule?
Its GI50 is 2.81 µM.

And the TGI (TK-10 renal)?
Its TGI is 11.5 µM.

What about the GI50 (U251 CNS) of the same molecule?
The GI50 was 0.839 µM.

And the TGI (U251 CNS)?
Its TGI is 10.4 µM.

What about the GI50 (MDA-MB-231 breast) of the same molecule?
The GI50 was 0.837 µM.

And the TGI (MDA-MB-231 breast)?
The TGI was 8.9 µM.

And the GI50 (OVCAR-8 ovarian)?
Its GI50 is 0.645 µM.

And the TGI (OVCAR-8 ovarian)?
Its TGI is 10.3 µM.

And the GI50 (PC-3 prostate)?
Its GI50 is 0.74 µM.

What about the TGI (PC-3 prostate) of the same molecule?
The TGI was 12.1 µM.

What about the GI50 (SN12C renal) of the same molecule?
Its GI50 is 0.97 µM.

And the TGI (SN12C renal)?
Its TGI is 3.61 µM.

And the GI50 (HS 578T breast)?
Its GI50 is 4.44 µM.

And the TGI (HS 578T breast)?
Its TGI is 45.7 µM.

What about the GI50 (SF-268 CNS) of the same molecule?
Its GI50 is 1.89 µM.

What about the TGI (SF-268 CNS) of the same molecule?
Its TGI is 11.9 µM.

What about the GI50 (OVCAR-5 ovarian) of the same molecule?
The GI50 was 2.63 µM.

What about the TGI (OVCAR-5 ovarian) of the same molecule?
Its TGI is 10.6 µM.

And the GI50 (SNB-19 CNS)?
Its GI50 is 2.55 µM.

What about the TGI (SNB-19 CNS) of the same molecule?
The TGI was 17.1 µM.

And the GI50 (NCI/ADR-RES ovarian)?
The GI50 was 0.731 µM.

And the TGI (NCI/ADR-RES ovarian)?
The TGI was 5.62 µM.

What about the GI50 (UACC-257 melanoma) of the same molecule?
The GI50 was 1.75 µM.

What about the TGI (UACC-257 melanoma) of the same molecule?
The TGI was 4.56 µM.

And the GI50 (SNB-75 CNS)?
The GI50 was 3.68 µM.

And the TGI (SNB-75 CNS)?
Its TGI is 15.2 µM.

What about the GI50 (NCI-H460 lung) of the same molecule?
Its GI50 is 0.59 µM.

And the TGI (NCI-H460 lung)?
The TGI was 11 µM.

What about the GI50 (CCRF-CEM leukemia) of the same molecule?
The GI50 was 0.544 µM.

And the TGI (CCRF-CEM leukemia)?
Its TGI is 11.9 µM.

What about the GI50 (SK-MEL-5 melanoma) of the same molecule?
The GI50 was 1.66 µM.

What about the TGI (SK-MEL-5 melanoma) of the same molecule?
Its TGI is 3.16 µM.

What about the GI50 (LOX IMVI melanoma) of the same molecule?
The GI50 was 0.624 µM.

What about the TGI (LOX IMVI melanoma) of the same molecule?
Its TGI is 2.82 µM.

What about the GI50 (RPMI-8226 leukemia) of the same molecule?
Its GI50 is 2.09 µM.

And the TGI (RPMI-8226 leukemia)?
Its TGI is 7.36 µM.

And the GI50 (MDA-MB-435)?
Its GI50 is 2.27 µM.

What about the TGI (MDA-MB-435) of the same molecule?
Its TGI is 8.66 µM.

What about the GI50 (SK-MEL-28 melanoma) of the same molecule?
Its GI50 is 1.56 µM.

What about the TGI (SK-MEL-28 melanoma) of the same molecule?
The TGI was 4.16 µM.

And the GI50 (SR leukemia)?
Its GI50 is 0.465 µM.

And the TGI (SR leukemia)?
Its TGI is 7.63 µM.

What about the GI50 (T-47D breast) of the same molecule?
The GI50 was 1.75 µM.

And the TGI (T-47D breast)?
The TGI was 4.67 µM.

What about the GI50 (EKVX NSCLC) of the same molecule?
The GI50 was 1.41 µM.

And the TGI (EKVX NSCLC)?
Its TGI is 6.5 µM.

What about the GI50 (M14 melanoma) of the same molecule?
Its GI50 is 1.27 µM.

What about the TGI (M14 melanoma) of the same molecule?
The TGI was 3.53 µM.

And the GI50 (DU-145 prostate)?
The GI50 was 1.27 µM.

What about the TGI (DU-145 prostate) of the same molecule?
The TGI was 3.81 µM.

And the GI50 (ACHN renal)?
Its GI50 is 1.34 µM.

What about the TGI (ACHN renal) of the same molecule?
The TGI was 7.78 µM.

What about the GI50 (HT29 colon) of the same molecule?
The GI50 was 1.84 µM.

What about the TGI (HT29 colon) of the same molecule?
The TGI was 6.59 µM.

And the GI50 (UACC-62 melanoma)?
Its GI50 is 1.85 µM.

And the TGI (UACC-62 melanoma)?
Its TGI is 4.39 µM.

What about the GI50 (SK-OV-3 ovarian) of the same molecule?
Its GI50 is 3.23 µM.

What about the TGI (SK-OV-3 ovarian) of the same molecule?
Its TGI is 13.4 µM.

What about the GI50 (HCT-116 colon) of the same molecule?
The GI50 was 0.604 µM.

What about the TGI (HCT-116 colon) of the same molecule?
Its TGI is 2.13 µM.

And the GI50 (NCI-H23 lung)?
The GI50 was 1.46 µM.

What about the TGI (NCI-H23 lung) of the same molecule?
Its TGI is 4.32 µM.

What about the GI50 (HL-60(TB) leukemia) of the same molecule?
The GI50 was 2.12 µM.

What about the TGI (HL-60(TB) leukemia) of the same molecule?
Its TGI is 5.88 µM.

What about the GI50 (OVCAR-3 ovarian) of the same molecule?
The GI50 was 0.869 µM.

What about the TGI (OVCAR-3 ovarian) of the same molecule?
The TGI was 3.08 µM.

And the GI50 (A549 NSCLC)?
The GI50 was 0.538 µM.

And the TGI (A549 NSCLC)?
The TGI was 3.17 µM.

What about the GI50 (SW-620 colon) of the same molecule?
The GI50 was 1.41 µM.

What about the TGI (SW-620 colon) of the same molecule?
Its TGI is 3.86 µM.

And the GI50 (MOLT-4 leukemia)?
Its GI50 is 0.432 µM.

And the TGI (MOLT-4 leukemia)?
Its TGI is 3.21 µM.

And the GI50 (HCT-15 colon)?
Its GI50 is 0.461 µM.

What about the TGI (HCT-15 colon) of the same molecule?
The TGI was 3.16 µM.

What about the GI50 (SK-MEL-2 melanoma) of the same molecule?
Its GI50 is 1.84 µM.

What about the TGI (SK-MEL-2 melanoma) of the same molecule?
The TGI was 7.52 µM.
